In ChEMBL document CHEMBL5705893, “Targeting the mitotic checkpoint for cancer therapy with NMS-P715, an inhibitor of MPS1 kinase” (Cancer Res, 2010):
Calls of active or inactive are those of the source. The calls are words filed in the database; no cut-off is given here.

Experiments:
A-375 = experiment: Antiproliferative activity against human A-375 cells assessed as inhibition of cell growth incubated for 72 hrs by celltiter-glo assay; assay type: functional, cell-based; settings: A-375, 72 h
[1] = biological target: Serine/threonine-protein kinase PLK3 (Homo sapiens, UniProt Q9H4B4); experiment: Inhibition of recombinant PLK3 (unknown origin)
KM12 = experiment: Antiproliferative activity against human KM12 cells assessed as inhibition of cell growth incubated for 72 hrs by celltiter-glo assay; assay type: functional, cell-based; settings: KM12, 72 h
MeWo = experiment: Antiproliferative activity against human MeWo cells assessed as inhibition of cell growth incubated for 72 hrs by celltiter-glo assay; assay type: functional, cell-based
PC-3 = experiment: Antiproliferative activity against human PC-3 cells assessed as inhibition of cell growth incubated for 72 hrs by celltiter-glo assay; assay type: functional, cell-based; settings: PC-3, 72 h
[2] = Antiproliferative activity against human GM14788 cells assessed as inhibition of cell growth incubated for 72 hrs by celltiter-glo assay; assay type: functional, cell-based; settings: GM14788, 72 h
HCC78 = experiment: Antiproliferative activity against human HCC78 cells assessed as inhibition of cell growth incubated for 72 hrs by celltiter-glo assay; assay type: functional, cell-based; settings: HCC78, 72 h
CAPAN-1 = experiment: Antiproliferative activity against human CAPAN-1 cells assessed as inhibition of cell growth incubated for 72 hrs by celltiter-glo assay; assay type: functional, cell-based; settings: CAPAN-1, 72 h
MDA-MB-435 = experiment: Antiproliferative activity against human MDA-MB-435 cells assessed as inhibition of cell growth incubated for 72 hrs by celltiter-glo assay; assay type: functional, cell-based; settings: MDA-MB-435, 72 h
A2780 = experiment: Induction of apoptosis in human A2780 cells assessed as effect on histone H2AX phosphorylation 0.2 to 1 micromol/L incubated for 2 to 72 hrs by Western blot analysis; assay type: functional, cell-based; settings: dose 0.2-1 µmol/L, time 2-72 hrs
[3] = biological target: Protein kinase C beta type (Homo sapiens, UniProt P05771); experiment: Inhibition of recombinant PKCbeta (unknown origin)
T98G = experiment: Antiproliferative activity against human T98G cells assessed as inhibition of cell growth incubated for 72 hrs by celltiter-glo assay; assay type: functional, cell-based
SF-539 = experiment: Antiproliferative activity against human SF-539 cells assessed as inhibition of cell growth incubated for 72 hrs by celltiter-glo assay; assay type: functional, cell-based; settings: SF-539, 72 h
MV4-11 = experiment: Antiproliferative activity against human MV4-11 cells assessed as inhibition of cell growth incubated for 72 hrs by celltiter-glo assay; assay type: functional, cell-based; settings: MV4-11, 72 h
Hs-578T = experiment: Antiproliferative activity against human Hs-578T cells assessed as inhibition of cell growth incubated for 72 hrs by celltiter-glo assay; assay type: functional, cell-based
M14 = experiment: Antiproliferative activity against human M14 cells assessed as inhibition of cell growth incubated for 72 hrs by celltiter-glo assay; assay type: functional, cell-based; settings: M14, 72 h
NCI-H929 = experiment: Antiproliferative activity against human NCI-H929 cells assessed as inhibition of cell growth incubated for 72 hrs by celltiter-glo assay; assay type: functional, cell-based; settings: NCI-H929, 72 h
[4] = AUC in Athymic nu-nu mouse at 100 mg/kg, po measured upto 24 hrs by LC-MS/MS analysis; assay type: ADME, organism-based; settings: in vivo
TF-1 = experiment: Antiproliferative activity against human TF-1 cells assessed as inhibition of cell growth incubated for 72 hrs by celltiter-glo assay; assay type: functional, cell-based; settings: TF-1, 72 h
MCF7 = experiment: Antiproliferative activity against human MCF7 cells assessed as inhibition of cell growth incubated for 72 hrs by celltiter-glo assay; assay type: functional, cell-based; settings: MCF7, 72 h
NCI-H82 = experiment: Antiproliferative activity against human NCI-H82 cells assessed as inhibition of cell growth incubated for 72 hrs by celltiter-glo assay; assay type: functional, cell-based; settings: NCI-H82, 72 h
Jurkat = experiment: Antiproliferative activity against human Jurkat cells assessed as inhibition of cell growth incubated for 72 hrs by celltiter-glo assay; assay type: functional, cell-based
U2OS = experiment: Antiproliferative activity against human U2OS cells assessed as inhibition of cell growth incubated for 72 hrs by celltiter-glo assay; assay type: functional, cell-based
OVCAR-8 = experiment: Antiproliferative activity against human OVCAR-8 cells assessed as inhibition of cell growth incubated for 72 hrs by celltiter-glo assay; assay type: functional, cell-based; settings: OVCAR-8, 72 h
[5] = biological target: Mitogen-activated protein kinase 14 (Homo sapiens, UniProt Q16539); experiment: Inhibition of recombinant P38alpha (unknown origin)
SW948 = experiment: Antiproliferative activity against human SW948 cells assessed as inhibition of cell growth incubated for 72 hrs by celltiter-glo assay; assay type: functional, cell-based; settings: SW948, 72 h
[6] = Inhibition of recombinant AUR2 (unknown origin); set-up: species or system Homo sapiens
LS174T = experiment: Antiproliferative activity against human LS174T cells assessed as inhibition of cell growth incubated for 72 hrs by celltiter-glo assay; assay type: functional, cell-based
[7] = Toxicity in Athymic nu-nu nude mouse xenografted with human A2780 cells assessed as body weight loss at 90 mg/kg, po administered once a day for 7 days; assay type: organism-based; settings: in vivo, 168 h, time 7 day
KG-1 = experiment: Antiproliferative activity against human KG-1 cells assessed as inhibition of cell growth incubated for 72 hrs by celltiter-glo assay; assay type: functional, cell-based; settings: KG-1, 72 h
[8] = biological target: Serine/threonine-protein kinase pim-2 (Homo sapiens, UniProt Q9P1W9); experiment: Inhibition of recombinant PIM2 (unknown origin)
SN12C = experiment: Antiproliferative activity against human SN12C cells assessed as inhibition of cell growth incubated for 72 hrs by celltiter-glo assay; assay type: functional, cell-based
[9] = Inhibition of recombinant ABL (unknown origin); set-up: species or system Homo sapiens
NCI-H322M = experiment: Antiproliferative activity against human NCI-H322M cells assessed as inhibition of cell growth incubated for 72 hrs by celltiter-glo assay; assay type: functional, cell-based
[10] = biological target: Dual specificity protein kinase TTK (Homo sapiens) (UniProt P33981)
Description: Binding affinity to recombinant human MPS1 assessed as half life

NCI-H889 = experiment: Antiproliferative activity against human NCI-H889 cells assessed as inhibition of cell growth incubated for 72 hrs by celltiter-glo assay; assay type: functional, cell-based; settings: NCI-H889, 72 h
[11] = biological target: Serine/threonine-protein kinase Nek6 (Homo sapiens, UniProt Q9HC98); experiment: Inhibition of recombinant NEK6 (unknown origin) preincubated for 60 mins
SU-DHL-6 = experiment: Antiproliferative activity against human SU-DHL-6 cells assessed as inhibition of cell growth incubated for 72 hrs by celltiter-glo assay; assay type: functional, cell-based; settings: SU-DHL-6, 72 h
LoVo = experiment: Antiproliferative activity against human LoVo cells assessed as inhibition of cell growth incubated for 72 hrs by celltiter-glo assay; assay type: functional, cell-based
HeLa = experiment: Inhibition of cdc20-BUB3 protein-protein interaction in human nocodazole arrested HeLa cells by Coimmunoprecipitation analysis; assay type: cell-based
SK-OV-3 = experiment: Antiproliferative activity against human SK-OV-3 cells assessed as inhibition of cell growth incubated for 72 hrs by celltiter-glo assay; assay type: functional, cell-based; settings: SK-OV-3, 72 h
LS180 = experiment: Antiproliferative activity against human LS180 cells assessed as inhibition of cell growth incubated for 72 hrs by celltiter-glo assay; assay type: functional, cell-based; settings: LS180, 72 h
NCI-H2126 = experiment: Antiproliferative activity against human NCI-H2126 cells assessed as inhibition of cell growth incubated for 72 hrs by celltiter-glo assay; assay type: functional, cell-based; settings: NCI-H2126, 72 h

Sequence of Dual specificity protein kinase TTK (Homo sapiens) (P33981 whole entry): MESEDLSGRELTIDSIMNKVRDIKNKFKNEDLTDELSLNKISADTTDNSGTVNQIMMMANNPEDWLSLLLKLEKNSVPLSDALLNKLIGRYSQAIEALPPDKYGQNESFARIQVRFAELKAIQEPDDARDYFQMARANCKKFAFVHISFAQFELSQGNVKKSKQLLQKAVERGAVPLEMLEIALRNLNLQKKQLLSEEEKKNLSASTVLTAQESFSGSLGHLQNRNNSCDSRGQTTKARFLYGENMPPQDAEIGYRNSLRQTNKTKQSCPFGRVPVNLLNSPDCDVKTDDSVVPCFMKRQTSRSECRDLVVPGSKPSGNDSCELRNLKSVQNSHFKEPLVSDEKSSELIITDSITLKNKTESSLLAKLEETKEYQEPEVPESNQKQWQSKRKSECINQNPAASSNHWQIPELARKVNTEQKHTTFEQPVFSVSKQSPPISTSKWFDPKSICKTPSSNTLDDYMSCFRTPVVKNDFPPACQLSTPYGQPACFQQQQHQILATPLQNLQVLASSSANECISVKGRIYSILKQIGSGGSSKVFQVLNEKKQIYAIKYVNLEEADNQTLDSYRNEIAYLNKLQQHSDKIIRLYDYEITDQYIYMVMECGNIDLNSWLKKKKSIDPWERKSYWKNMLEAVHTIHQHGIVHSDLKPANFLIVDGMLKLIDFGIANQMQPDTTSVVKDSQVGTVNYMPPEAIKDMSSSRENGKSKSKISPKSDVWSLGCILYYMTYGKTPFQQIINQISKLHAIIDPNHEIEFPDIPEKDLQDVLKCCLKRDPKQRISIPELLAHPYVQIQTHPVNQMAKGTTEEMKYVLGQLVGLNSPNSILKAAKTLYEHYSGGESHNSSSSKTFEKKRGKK
Sequence of Mitogen-activated protein kinase 14 (Q16539 whole entry): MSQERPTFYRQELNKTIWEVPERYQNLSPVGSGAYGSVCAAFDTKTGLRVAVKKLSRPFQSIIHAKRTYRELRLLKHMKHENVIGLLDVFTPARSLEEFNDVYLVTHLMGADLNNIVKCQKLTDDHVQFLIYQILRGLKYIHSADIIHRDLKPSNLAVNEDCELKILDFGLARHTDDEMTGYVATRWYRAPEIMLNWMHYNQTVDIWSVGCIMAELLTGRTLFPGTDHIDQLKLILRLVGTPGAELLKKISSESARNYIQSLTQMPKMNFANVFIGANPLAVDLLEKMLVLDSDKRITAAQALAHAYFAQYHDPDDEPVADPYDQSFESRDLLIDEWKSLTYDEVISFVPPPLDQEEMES
Sequence of Protein kinase C beta type (P05771 whole entry): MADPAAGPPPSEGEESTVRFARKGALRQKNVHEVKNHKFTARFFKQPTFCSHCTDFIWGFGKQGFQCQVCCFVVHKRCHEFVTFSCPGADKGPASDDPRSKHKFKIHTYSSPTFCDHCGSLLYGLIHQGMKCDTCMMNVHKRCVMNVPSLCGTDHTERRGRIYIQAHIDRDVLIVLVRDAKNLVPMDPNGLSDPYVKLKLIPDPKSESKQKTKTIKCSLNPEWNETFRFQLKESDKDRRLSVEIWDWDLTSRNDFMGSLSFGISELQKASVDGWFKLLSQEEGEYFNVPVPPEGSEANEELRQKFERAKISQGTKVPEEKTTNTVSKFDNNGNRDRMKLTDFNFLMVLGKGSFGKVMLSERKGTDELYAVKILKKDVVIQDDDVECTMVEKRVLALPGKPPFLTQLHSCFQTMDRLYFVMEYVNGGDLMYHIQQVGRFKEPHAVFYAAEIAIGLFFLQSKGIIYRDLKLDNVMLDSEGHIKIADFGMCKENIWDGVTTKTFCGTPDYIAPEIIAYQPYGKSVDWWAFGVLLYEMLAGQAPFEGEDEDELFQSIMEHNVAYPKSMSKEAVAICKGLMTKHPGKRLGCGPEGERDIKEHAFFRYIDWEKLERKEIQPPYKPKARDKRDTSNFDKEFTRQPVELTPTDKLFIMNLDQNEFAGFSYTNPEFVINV
Sequence of Serine/threonine-protein kinase Nek6 (Q9HC98 whole entry): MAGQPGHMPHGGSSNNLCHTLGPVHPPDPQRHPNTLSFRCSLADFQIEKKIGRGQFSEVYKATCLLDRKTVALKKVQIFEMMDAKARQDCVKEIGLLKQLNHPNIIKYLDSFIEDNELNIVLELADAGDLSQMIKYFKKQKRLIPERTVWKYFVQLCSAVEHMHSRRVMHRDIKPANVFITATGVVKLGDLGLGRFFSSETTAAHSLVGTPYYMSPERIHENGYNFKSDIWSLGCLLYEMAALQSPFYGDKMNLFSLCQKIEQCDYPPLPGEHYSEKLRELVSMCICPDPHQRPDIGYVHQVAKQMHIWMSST
Sequence of Serine/threonine-protein kinase pim-2 (Q9P1W9 whole entry): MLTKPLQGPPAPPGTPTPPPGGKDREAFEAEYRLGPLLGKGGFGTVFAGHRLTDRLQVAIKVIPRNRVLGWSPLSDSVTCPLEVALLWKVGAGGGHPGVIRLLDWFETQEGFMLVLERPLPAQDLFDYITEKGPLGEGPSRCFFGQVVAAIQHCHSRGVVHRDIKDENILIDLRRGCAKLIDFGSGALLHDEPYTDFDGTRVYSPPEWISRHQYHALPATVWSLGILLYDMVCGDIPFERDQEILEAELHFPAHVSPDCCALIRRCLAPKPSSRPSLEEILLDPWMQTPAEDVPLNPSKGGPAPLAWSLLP
Sequence of Serine/threonine-protein kinase PLK3 (Q9H4B4 whole entry): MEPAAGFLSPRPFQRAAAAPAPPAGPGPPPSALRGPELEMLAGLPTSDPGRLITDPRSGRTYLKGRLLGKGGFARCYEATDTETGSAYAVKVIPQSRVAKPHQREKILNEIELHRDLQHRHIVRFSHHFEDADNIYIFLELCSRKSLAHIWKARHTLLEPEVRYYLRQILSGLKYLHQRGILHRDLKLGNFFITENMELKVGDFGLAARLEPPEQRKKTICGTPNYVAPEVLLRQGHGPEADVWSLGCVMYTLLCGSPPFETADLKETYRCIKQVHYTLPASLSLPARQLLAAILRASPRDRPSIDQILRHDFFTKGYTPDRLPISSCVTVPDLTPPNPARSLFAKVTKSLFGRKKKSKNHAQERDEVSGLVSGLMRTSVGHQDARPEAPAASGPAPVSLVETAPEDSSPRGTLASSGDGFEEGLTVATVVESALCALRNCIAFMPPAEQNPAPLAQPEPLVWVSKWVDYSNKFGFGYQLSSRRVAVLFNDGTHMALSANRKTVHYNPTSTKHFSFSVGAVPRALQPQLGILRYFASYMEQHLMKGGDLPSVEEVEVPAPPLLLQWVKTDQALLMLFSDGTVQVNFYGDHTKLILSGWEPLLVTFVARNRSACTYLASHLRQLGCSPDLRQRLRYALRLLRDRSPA

Compound: CCc1cccc(CC)c1NC(=O)c1nn(C)c2c1CCc1cnc(Nc3ccc(C(=O)NC4CCN(C)CC4)cc3OC(F)(F)F)nc1-2
- IC50 (A-375): 796 nM
- IC50 [1]: > 10000 nM
- IC50 (KM12): 586 nM
- IC50 (MeWo): 3260 nM
- IC50 (PC-3): 1990 nM
- IC50 [2]: 10000 nM
- IC50 (HCC78): 10000 nM
- IC50 (CAPAN-1): 5220 nM
- IC50 (MDA-MB-435): 1960 nM
- Activity (A2780): Active
- IC50 [3]: > 10000 nM
- IC50 (T98G): 203 nM
- IC50 (SF-539): 807 nM
- IC50 (MV4-11): 1140 nM
- IC50 (Hs-578T): 6640 nM
- IC50 (M14): 698 nM
- IC50 (NCI-H929): 10000 nM
- AUC at 24 h [4]: 50.7 µM·h
- IC50 (TF-1): 6530 nM
- IC50 (MCF7): 1860 nM
- IC50 (NCI-H82): 2590 nM
- IC50 (Jurkat): 3610 nM
- IC50 (U2OS): 2090 nM
- IC50 (OVCAR-8): 1210 nM
- IC50 [5]: > 10000 nM
- IC50 (SW948): 1960 nM
- IC50 [6]: > 10000 nM
- IC50 (LS174T): 1940 nM
- Activity [7]: Non-Toxic
- IC50 (KG-1): 2960 nM
- IC50 [8]: > 10000 nM
- IC50 (SN12C): 1220 nM
- IC50 [9]: > 10000 nM
- IC50 (NCI-H322M): 1560 nM
- T1/2 [10]: 9.76 min
- IC50 (NCI-H889): 1260 nM
- IC50 [11]: < 10000 nM
- IC50 (SU-DHL-6): 10000 nM
- IC50 (LoVo): 1870 nM
- inhibition (HeLa): Active
- IC50 (SK-OV-3): 4260 nM
- IC50 (LS180): 2170 nM
- IC50 (NCI-H2126): 4630 nM
